Like-named read-outs stand apart in the source and are kept apart here. Marks after values point to notes of the source that are not given here.
What was measured:
[1] = biological target: T1, equine serum BChE (Equus caballus, UniProt P81908); set-up: method as in PMID 33322783; conditions: cited from earlier work
[2] = set-up: method as in PMID 33322783; conditions: Trolox equivalents; cited from earlier work
[3] = ABTS radical cation scavenging assay; conditions: for ABTS•+-Scavenging Activity TEAC: Trolox equivalents
[4] = biological target: T2, Human erythrocyte AChE (Homo sapiens, UniProt P22303); set-up: method as in PMID 33322783; conditions: cited from earlier work
T2 sequence (P22303 other isoform, or with tags, fused parts or gaps): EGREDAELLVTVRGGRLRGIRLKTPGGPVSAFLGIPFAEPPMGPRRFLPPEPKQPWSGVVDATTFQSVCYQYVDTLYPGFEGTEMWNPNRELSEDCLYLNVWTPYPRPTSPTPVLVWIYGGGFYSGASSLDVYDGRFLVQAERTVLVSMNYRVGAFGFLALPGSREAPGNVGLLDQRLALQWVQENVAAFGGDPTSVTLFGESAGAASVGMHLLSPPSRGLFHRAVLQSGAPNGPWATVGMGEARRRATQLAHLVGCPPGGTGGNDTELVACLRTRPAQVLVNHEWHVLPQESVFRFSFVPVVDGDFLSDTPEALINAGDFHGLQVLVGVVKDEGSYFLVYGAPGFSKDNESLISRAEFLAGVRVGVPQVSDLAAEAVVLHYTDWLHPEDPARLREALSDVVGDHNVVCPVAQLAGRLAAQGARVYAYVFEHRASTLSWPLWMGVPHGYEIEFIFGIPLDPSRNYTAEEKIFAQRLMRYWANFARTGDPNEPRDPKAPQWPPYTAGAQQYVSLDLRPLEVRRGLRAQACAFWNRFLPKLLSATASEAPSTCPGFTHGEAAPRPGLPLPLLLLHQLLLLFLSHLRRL

[5] = set-up: method as in PMID 33322783; conditions: Trolox equivalents; cited from earlier work; remark: listed apart in the source
[6] = biological target: T3, peripheral anionic site of Electrophorus electricus AChE (EeAChE) (Electrophorus electricus, UniProt O42275); set-up: method as in PMID 33322783; conditions: compound 20 μM; cited from earlier work
T3 sequence (O42275 24-633): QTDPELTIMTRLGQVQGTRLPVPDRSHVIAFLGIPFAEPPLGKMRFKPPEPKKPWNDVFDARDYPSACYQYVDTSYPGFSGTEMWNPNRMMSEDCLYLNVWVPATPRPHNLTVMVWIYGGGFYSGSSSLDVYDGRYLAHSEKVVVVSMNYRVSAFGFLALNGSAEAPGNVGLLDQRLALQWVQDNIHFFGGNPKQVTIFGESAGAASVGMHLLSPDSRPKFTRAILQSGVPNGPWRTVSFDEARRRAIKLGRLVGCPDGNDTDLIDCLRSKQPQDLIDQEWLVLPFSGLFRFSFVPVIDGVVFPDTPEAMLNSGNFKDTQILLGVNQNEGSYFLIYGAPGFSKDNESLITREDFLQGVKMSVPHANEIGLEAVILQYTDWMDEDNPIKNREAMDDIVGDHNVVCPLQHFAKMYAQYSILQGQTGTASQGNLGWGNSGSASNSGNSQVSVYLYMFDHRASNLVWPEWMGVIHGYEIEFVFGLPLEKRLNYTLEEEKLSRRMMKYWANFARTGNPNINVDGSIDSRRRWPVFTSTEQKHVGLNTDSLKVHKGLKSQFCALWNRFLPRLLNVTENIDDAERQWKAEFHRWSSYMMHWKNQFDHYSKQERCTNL

[7] = tested on: Porcine liver CES; set-up: method as in PMID 33322783; conditions: cited from earlier work
[8] = tested on: spontaneous lipid peroxidation in mouse brain homogenate; type: biochemical; conditions: read-out: Inhibition of Spontaneous Lipid Peroxidation in Mouse Brain Homogenate, TBARS Assay IC50
[9] = tested on: Porcine liver CES; test: CES inhibition, spectrophotometric, 4-NPA substrate; type: biochemical
Experimental: (§1) Human erythrocyte AChE and equine serum BChE were purchased from Milamed (Perm, Russia). Porcine liver CES, substrates, and reference compounds were from Sigma-Aldrich (St. Louis, MO, USA). The activity of enzymes was measured spectrophotometrically, as described in detail in [72] using ATCh iodide, BTCh iodide, and 4-NPA as substrates for AChE, BChE, and CES, respectively. Experimental conditions: K,Na—phosphate buffer (100 mM), 25 °C, pH 7.5 for AChE and BChE and pH 8.0 for CES assay. Measurements were carried out on a FLUOStar Optima microplate reader (BMG Labtech, Ortenberg, Germany).
Test compounds were dissolved in DMSO; the final concentration of solvent in the incubation mixture was 2% (v/v). […]

[10] = tested on: free radicals in mouse brain homogenate (TBHP-initiated); type: biochemical; conditions: read-out: Radical Scavenging Capacity, Luminol Chemiluminescence Assay IC50
[11] = biological target: T3, peripheral anionic site of Electrophorus electricus AChE (EeAChE); type: binding
[12] = biological target: T2, Human erythrocyte AChE; test: biochemical; type: biochemical
Experimental: as §1
(§2) Test compounds were dissolved in DMSO; the final concentration of solvent in the incubation mixture was 2% (v/v).

[13] = biological target: T1, equine serum BChE; test: biochemical; type: biochemical; conditions: for BChE activity relative to tacrine (times more active): vs tacrine
Experimental: as §1, §2

[14] = Ferric-reducing antioxidant power (FRAP) assay; conditions: Trolox equivalents
[15] = biological target: Aβ42 (Homo sapiens, UniProt P05067); test: Inhibition of Aβ42 self-aggregation, thioflavin T fluorescence; type: biochemical; conditions: Aβ42 50 µM, compound 100 µM; read-out: Inhibition of Aβ42 Self-Aggregation
Sequence of Aβ42 (P05067 672-713): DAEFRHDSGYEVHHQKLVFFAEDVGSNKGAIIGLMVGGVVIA

[16] = biological target: T4, eqBChE (Equus caballus, UniProt P81908); set-up: method as in PMID 33322783; conditions: cited from earlier work
T4 sequence (P81908 whole entry): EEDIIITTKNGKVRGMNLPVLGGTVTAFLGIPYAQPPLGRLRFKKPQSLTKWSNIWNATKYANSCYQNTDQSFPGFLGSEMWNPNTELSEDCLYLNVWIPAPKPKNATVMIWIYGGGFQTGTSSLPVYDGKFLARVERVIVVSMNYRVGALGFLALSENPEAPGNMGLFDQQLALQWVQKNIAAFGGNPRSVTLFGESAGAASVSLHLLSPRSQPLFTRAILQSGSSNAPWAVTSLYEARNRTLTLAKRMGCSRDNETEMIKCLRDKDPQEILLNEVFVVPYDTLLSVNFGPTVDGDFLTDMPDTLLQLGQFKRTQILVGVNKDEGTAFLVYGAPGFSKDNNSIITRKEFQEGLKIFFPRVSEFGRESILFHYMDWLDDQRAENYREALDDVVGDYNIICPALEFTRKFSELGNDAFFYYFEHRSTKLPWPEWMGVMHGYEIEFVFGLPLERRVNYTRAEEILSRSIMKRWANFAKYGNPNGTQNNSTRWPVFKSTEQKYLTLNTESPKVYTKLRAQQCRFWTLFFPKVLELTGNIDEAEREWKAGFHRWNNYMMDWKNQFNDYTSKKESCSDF

[17] = biological target: T5, AChE (Homo sapiens, UniProt P22303); set-up: method as in PMID 33322783; conditions: cited from earlier work
T5 sequence (P22303 other isoform, or with tags, fused parts or gaps): as the sequence (P22303 other isoform, or with tags, fused parts or gaps) above

[18] = biological target: T5, AChE; test: biochemical; type: biochemical; conditions: for Ki: read-out: AChE Ki (competitive inhibition constant)
Experimental: (§3) A mechanism of AChE and BChE inhibition was assessed by a detailed analysis of enzyme kinetics with three increasing concentrations of inhibitor and six substrate concentrations, as described in detail in [72].

[19] = biological target: T4, eqBChE; test: biochemical; type: biochemical; conditions: for Ki: read-out: eqBChE Ki (competitive inhibition constant)
Experimental: as §3

T1 sequence (P81908 whole entry): as the sequence (P81908 whole entry) above

Compound	IC50 [1] [µM]	Ferric-Reducing Antioxidant Power TE [2]	IC50 [3] [µM]	IC50 [4] [µM]	ABTS•+-Scavenging Activity TEAC [5]	Propidium Displacement [6]	CES % inhibition at 20 μM [7]	IC50 [8] [µM]	CES % inhibition at 20 μM [9] [%]	ABTS•+-Scavenging Activity TEAC [3]	IC50 [10] [µM]	Propidium Displacement [11] [%]	IC50 [12] [µM]	IC50 [13] [µM]	Ferric-Reducing Antioxidant Power TE [14]	inhibition at 100 µM [15] [%]	AChE αKi (non-competitive inhibition constant) [18] [nM]	Ki [18] [µM]	eqBChE αKi (non-competitive inhibition constant) [19] [nM]	Ki [19] [µM]	other results
CC(C)(C)c1cc(/C=N/CCNc2c3c(nc4ccccc24)CCC3)cc(C(C)(C)C)c1O [13a]	1.92 ± 0.11	0.51 ± 0.03 ^a,***	22.3 ± 1.5	4.86 ± 0.01	0.92 ± 0.03 ^a	18.1 ± 1.6 ^a,*^,§ %	26.1 ± 0.7% ^a,***	–	–	–	–	–	–	–	–	–	–	–	–	–	–
CC(C)(C)c1cc(/C=N/CCNc2c3c(nc4ccccc24)CCCC3)cc(C(C)(C)C)c1O [14a]	1.61 ± 0.04	0.58 ± 0.03 ^a,***	17.8 ± 1.5	5.98 ± 0.131	1.13 ± 0.05 ^a	18.2 ± 1.6 ^a,*^,§ %	28.6 ± 1.6% ^a,***	–	–	–	–	–	–	–	–	–	–	–	–	–	–
CC(C)(C)c1cc(C=NCCCCCCCCNc2c3c(nc4ccccc24)CCCC3)cc(C(C)(C)C)c1O [14d, 2,6-Di-tert-butyl-4-{[8-(1,2,3,4-tetrahydro-acridin-9-ylamino)-octylimino]-methyl}-phenol]	–	–	18.2 ± 0.7	–	–	–	–	20.4 ± 2.3	28.8 ± 2.0	1.06 ± 0.03	1.9 ± 0.1	14.8 ± 1.0	0.0171 ± 0.0016	0.00939 ± 0.00042	0.70 ± 0.03	70.4 ± 5.6	–	–	–	–	AChE potency relative to compound 14a (times more potent) ([12]; vs 14a): 350 times; AChE activity relative to tacrine (times more active) ([12]; vs tacrine): ~ 40 times
CC(C)(C)c1cc(/C=N/CCNc2c3c(nc4ccccc24)CCCCC3)cc(C(C)(C)C)c1O [15a]	0.419 ± 0.04	0.52 ± 0.01 ^a,***	18.8 ± 0.8	4.03 ± 0.03	1.11 ± 0.04 ^a	16.3 ± 1.3 ^a %	30.1 ± 2.5% ^a,***	–	–	–	–	–	–	–	–	–	–	–	–	–	eqBChE αKi (non-competitive inhibition constant) [16]: 437 ± 10 ^b,*** nM; Ki ([16]; read-out: eqBChE Ki (competitive inhibition constant)): 0.164 ± 0.005 µM; AChE αKi (non-competitive inhibition constant) [17]: 4300 ± 20 ^b,* nM; Ki ([17]; read-out: AChE Ki (competitive inhibition constant)): 1.58 ± 0.1 µM
CC(C)(C)c1cc(C=NCCCCCCNc2c3c(nc4ccccc24)CCCCC3)cc(C(C)(C)C)c1O [15c, 2,6-Di-tert-butyl-4-{[6-(7,8,9,10-tetrahydro-6H-cyclohepta[b]quinolin-11-ylamino)-hexylimino]-methyl}-phenol]	–	–	22.3 ± 1.1	–	–	–	–	27.6 ± 1.7	25.4 ± 0.9	0.90 ± 0.03	2.3 ± 0.3	16.8 ± 1.2	0.151 ± 0.013	0.0106 ± 0.0002	0.52 ± 0.02	43.4 ± 3.9	108 ± 3	0.0698 ± 0.005	9.34 ± 0.62	0.00513 ± 0.0001	–
CC(C)(C)c1cc(C=NCCCCCCCCNc2c3c(nc4ccccc24)CCCCC3)cc(C(C)(C)C)c1O [15d, 2,6-Di-tert-butyl-4-{[8-(7,8,9,10-tetrahydro-6H-cyclohepta[b]quinolin-11-ylamino)-octylimino]-methyl}-phenol]	–	–	19.6 ± 0.8	–	–	–	–	29.1 ± 2.4	25.5 ± 1.1	1.00 ± 0.03	3 ± 0.1	14.9 ± 1.2	0.026 ± 0.0024	0.00624 ± 0.00054	0.73 ± 0.02	63.5 ± 5	31.4 ± 2.4	0.0199 ± 0.0008	5.68 ± 0.06	0.00491 ± 0.00042	type of AChE inhibition [18]: mixed type; type of BChE inhibition [19]: mixed type; BChE activity relative to tacrine (times more active) [13]: 5 times
CC(C)(C)c1cc(CNCCNc2c3c(nc4ccccc24)CCC3)cc(C(C)(C)C)c1O [16a]	–	–	14.6 ± 0.8	–	1.39 ± 0.05 ^a,***	16.4 ± 1.4 ^a %	19.6 ± 1.3% ^a,***	–	–	–	–	–	–	–	0.57 ± 0.02	–	–	–	–	–	–
CC(C)(C)c1cc(CNCCNc2c3c(nc4ccccc24)CCCCC3)cc(C(C)(C)C)c1O [18a]	–	–	15.3 ± 0.6	–	1.35 ± 0.06 ^a,***	13.6 ± 1.2 ^a %	26.0 ± 3.9% ^a,*	–	–	–	–	–	–	–	0.44 ± 0.06	–	–	–	–	–	–
CC(C)(C)c1cc(CNCCCCCCNc2c3c(nc4ccccc24)CCCCC3)cc(C(C)(C)C)c1O [18c, 2,6-Di-tert-butyl-4-{[6-(7,8,9,10-tetrahydro-6H-cyclohepta[b]quinolin-11-ylamino)-hexylamino]-methyl}-phenol]	–	–	21.6 ± 1.1	–	–	–	–	24.6 ± 2.8	16.8 ± 0.5	1.00 ± 0.03	14.6 ± 0.8	12.5 ± 0.9	0.103 ± 0.004	0.0149 ± 0.0003	0.43 ± 0.02	47.8 ± 3.8	101 ± 5	0.0831 ± 0.0014	17.3 ± 0.2	0.00783 ± 0.00076	–
CC(C)(C)c1cc(CNCCCCCCCCNc2c3c(nc4ccccc24)CCCCC3)cc(C(C)(C)C)c1O [18d, 2,6-Di-tert-butyl-4-{[8-(7,8,9,10-tetrahydro-6H-cyclohepta[b]quinolin-11-ylamino)-octylamino]-methyl}-phenol]	–	–	15.8 ± 0.6	–	–	–	–	20.2 ± 3.3	13.9 ± 1.2	–	9.2 ± 0.6	12.3 ± 0.8	0.0308 ± 0.0002	0.00596 ± 0.00058	0.45 ± 0.01	59.6 ± 4.7	25.1 ± 0.2	0.013 ± 0.001	6.06 ± 0.41	0.00425 ± 0.00033	time to reach the activity level of Trolox in ABTS radical scavenging ([3]; compound at 20 μM (IC50 of Trolox)): less than 1 min; BChE activity relative to tacrine (times more active) [13]: 5 times
